In ChEMBL document CHEMBL3045600, “Synthesis and Fungicidal Activities of Phenoxyphenyl Alkoxyiminoacetamide Derivatives” (J Pestic Sci, 1998):

Experiments:
Format in all cases: functional
[1] = tested on: Podosphaera fuliginea; assay: Fungicidal activity against Podosphaera fuliginea assessed as cucumber powdery mildew control under greenhouse at 2 ppm foliar application 24 hr before inoculation on upper surface of leaf at 23 +/- 2 degC by preventive manner
[2] = tested on: Thanatephorus cucumeris; assay: Fungicidal activity against Thanatephorus cucumeris assessed as rice sheath blight disease control at 31.3 ppm foliar application for 24 hr before inoculation at 26 +- 2 measured after 5 days by preventive manner
[3] = tested on: Podosphaera fuliginea; assay: Fungicidal activity against Podosphaera fuliginea assessed as cucumber powdery mildew control under greenhouse at 125 ppm foliar application 24 hr before inoculation on upper surface of leaf at 23 +/- 2 degC by preventive manner
[4] = tested on: Thanatephorus cucumeris; assay: Fungicidal activity against Thanatephorus cucumeris assessed as rice sheath blight disease control at 125 ppm foliar application for 24 hr before inoculation at 26 +- 2 measured after 5 days by preventive manner
[5] = tested on: Podosphaera fuliginea; assay: Fungicidal activity against Podosphaera fuliginea assessed as cucumber powdery mildew control under greenhouse at 7.8 ppm foliar application 24 hr before inoculation on upper surface of leaf at 23 +/- 2 degC by preventive manner
[6] = tested on: Thanatephorus cucumeris; assay: Fungicidal activity against Thanatephorus cucumeris assessed as rice sheath blight disease control at 7.8 ppm foliar application for 24 hr before inoculation at 26 +- 2 measured after 5 days by preventive manner
[7] = tested on: Pseudoperonospora cubensis; assay: Fungicidal activity against Pseudoperonospora cubensis assessed as cucumber downy mildew disease control at 31.3 ppm foliar application 24 hr before inoculation on upper surface of leaf by preventive manner
[8] = tested on: Podosphaera fuliginea; assay: Fungicidal activity against Podosphaera fuliginea assessed as cucumber powdery mildew control under greenhouse at 31.3 ppm foliar application 24 hr before inoculation on upper surface of leaf at 23 +/- 2 degC by preventive manner
[9] = tested on: Pseudoperonospora cubensis; assay: Fungicidal activity against Pseudoperonospora cubensis assessed as cucumber downy mildew disease control at 7.8 ppm foliar application 24 hr before inoculation on upper surface of leaf by preventive manner
[10] = tested on: Pseudoperonospora cubensis; assay: Fungicidal activity against Pseudoperonospora cubensis assessed as cucumber downy mildew disease control at 125 ppm foliar application 24 hr before inoculation on upper surface of leaf by preventive manner
[11] = tested on: Pseudoperonospora cubensis; assay: Fungicidal activity against Pseudoperonospora cubensis assessed as cucumber downy mildew disease control at 2 ppm foliar application 24 hr before inoculation on upper surface of leaf by preventive manner
[12] = tested on: Thanatephorus cucumeris; assay: Fungicidal activity against Thanatephorus cucumeris assessed as rice sheath blight disease control at 2 ppm foliar application for 24 hr before inoculation at 26 +- 2 measured after 5 days by preventive manner

Row | Compound | Activity [1] | Activity [2] | Activity [3] | Activity [4] | Activity [5] | Activity [6] | Activity [7] | Activity [8] | Activity [9] | Activity [10] | Activity [11] | Activity [12]
1 | CNC(=O)/C(=N/OC)c1ccccc1OCc1ccccc1 | 70% | 70% | 70% | 70% | 70% | 70% | 70% | 70% | 70% | 70% | 70% | 70%
2 | CNC(=O)/C(=N/OC)c1ccccc1C(=O)c1ccccc1 | <70% | <70% | <70% | <70% | <70% | <70% | <70% | <70% | <70% | <70% | <70% | <70%
3 | CNC(=O)/C(=N/OC)c1cc([N+](=O)[O-])ccc1Oc1ccccc1 | <70% | <70% | <70% | <70% | <70% | <70% | <70% | <70% | <70% | <70% | <70% | <70%
4 | CNC(=O)/C(=N/OC)c1ccccc1CCc1ccccc1 | 70% | <70% | 70% | <70% | 70% | <70% | <70% | 70% | <70% | <70% | <70% | <70%
5 | CNC(=O)/C(=N/OC)c1ccc(Oc2ccccc2)cc1 | 70% | <70% | 70% | <70% | 70% | <70% | <70% | 70% | <70% | <70% | <70% | <70%
6 | CNC(=O)/C(=N/OC)c1ccccc1Sc1ccccc1 | 70% | 70% | 70% | 70% | 70% | 70% | 70% | 70% | 70% | 70% | 70% | 70%
7 | CNC(=O)/C(=N/OC)c1ccccc1C(=O)Oc1ccccc1 | 70% | <70% | 70% | <70% | 70% | <70% | <70% | 70% | <70% | <70% | <70% | <70%
8 | CNC(=O)/C(=N/OC)c1cccc(Oc2ccccc2)c1 | 70% | 70% | 70% | 70% | 70% | 70% | <70% | 70% | <70% | <70% | <70% | 70%
9 | CNC(=O)/C(=N/OC)c1ccccc1/C=C/c1ccccc1 | 70% | <70% | 70% | <70% | 70% | <70% | 70% | 70% | 70% | 70% | 70% | <70%
10 | CNC(=O)/C(=N/OC(C)C)c1ccccc1Oc1ccccc1 | <70% | <70% | <70% | <70% | <70% | <70% | <70% | <70% | <70% | <70% | <70% | <70%
11 | CNC(=O)/C(=N/OC)c1cc(OC)ccc1Oc1ccccc1 | 70% | 70% | 70% | 70% | 70% | 70% | 70% | 70% | 70% | 70% | 70% | 70%
12 | CNC(=O)/C(=N/O)c1ccccc1Oc1ccccc1 | <70% | <70% | <70% | <70% | <70% | <70% | <70% | <70% | <70% | <70% | <70% | <70%
13 | CNC(=O)/C(=N/OC)c1ccccc1NCc1ccccc1 | <70% | <70% | <70% | <70% | <70% | <70% | <70% | <70% | <70% | <70% | <70% | <70%
14 | CCO/N=C(/C(=O)NC)c1ccccc1Oc1ccccc1 | 70% | <70% | 70% | <70% | 70% | <70% | <70% | 70% | <70% | <70% | <70% | <70%
15 | CNC(=O)/C(=N/OC)c1ccccc1COc1ccccc1 | 70% | <70% | 70% | <70% | 70% | <70% | <70% | 70% | <70% | <70% | <70% | <70%
16 | CNC(=O)/C(=N/OC)c1cc(F)ccc1Oc1ccccc1 | 70% | 70% | 70% | 70% | 70% | 70% | 70% | 70% | 70% | 70% | 70% | 70%
17 | CNC(=O)/C(=N/OC)c1c(OC)cccc1Oc1ccccc1 | <70% | <70% | <70% | <70% | <70% | <70% | <70% | <70% | <70% | <70% | <70% | <70%
18 | CNC(=O)/C(=N/OC)c1ccccc1/C=C\c1ccccc1 | 70% | 70% | 70% | 70% | 70% | 70% | 70% | 70% | 70% | 70% | 70% | 70%
19 | CO/N=C(/C(N)=O)c1ccccc1Oc1ccccc1 |  | <70% |  | <70% |  | <70% | <70% |  | <70% | <70% | <70% | <70%
20 | CO/N=C(/C(=O)N(C)C)c1ccccc1Oc1ccccc1 | 70% | 70% | 70% | 70% | 70% | 70% | <70% | 70% | <70% | <70% | <70% | 70%
21 | CNC(=O)/C(=N/OC)c1ccccc1SCc1ccccc1 | 70% | 70% | 70% | 70% | 70% | 70% | 70% | 70% | 70% | 70% | 70% | 70%
22 | CCNC(=O)/C(=N/OC)c1ccccc1Oc1ccccc1 | 70% | 70% | 70% | 70% | 70% | 70% | <70% | 70% | <70% | <70% | <70% | 70%
